Results from US8192962B2, “Processes for detecting toxic substances” (Daikin Industries, Ltd., priority 2001, dated 2012).

Test system: Genes belonging to other category
Assay: DNA chip mRNA expression in yeast, genes belonging to other category (Table 9)
Type: cell-based, Saccharomyces cerevisiae S288C
Outline: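 S. cerevisiae S288C grown at 25° C in YPD were exposed in log phase for two hours to one toxic chemical at a growth-inhibiting, non-lethal concentration; untreated cells served as control. Poly(A) mRNA was reverse-transcribed with Cy3/Cy5-dUTP and hybridized to a whole-genome yeast DNA chip at 65° C for over 12 hours; values are fluorescence ratios versus untreated.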

Measured: The level of expressed mRNA in the presence of chemical substance/The level of expressed mRNA in the absence of chemical substance

COc1cc(CNC(=O)CCCCC=CC(C)C)ccc1O [(12), 8-methyl-N-vanillyl-6-nonenamide]
0.7: yeast gene YDR084C | yeast gene YDR432W | yeast gene YER107C | yeast gene YGL207W | yeast gene YGR279C | yeast gene YJL113W | yeast gene YKL013C | yeast gene YKL097W-A | yeast gene YMR275C | yeast gene YNL006W | yeast gene YNL007C | yeast gene YNR037C | yeast gene YOR132W | yeast gene YPL089C
0.8: yeast gene YCL027W | yeast gene YCR004C | yeast gene YDL197C | yeast gene YDR212W | yeast gene YDR329C | yeast gene YDR388W | yeast gene YDR515W | yeast gene YEL005C | yeast gene YEL066W | yeast gene YER048C | yeast gene YER100W | yeast gene YGL094C | yeast gene YGL150C | yeast gene YGR270W | yeast gene YHR071W | yeast gene YHR160C | yeast gene YHR171W | yeast gene YIL062C | yeast gene YIL075C | yeast gene YIL123W | yeast gene YJR004C | yeast gene YJR086W | yeast gene YJR091C | yeast gene YKL041W | yeast gene YKL139W | yeast gene YKR102W | yeast gene YLR080W | yeast gene YLR251W | yeast gene YLR362W | yeast gene YMR091C | yeast gene YNL147W | yeast gene YNL335W | yeast gene YNR010W | yeast gene YOR181W | yeast gene YOR229W | yeast gene YOR259C | yeast gene YOR265W | yeast gene YPR066W | yeast gene YPR140W | yeast gene YPR185W
1.6: yeast gene YBL005W-A | yeast gene YBL041W | yeast gene YDR085C | yeast gene YHR139C | yeast gene YLR120C
2.4: yeast gene YKL165C
2.5: yeast gene YOR117W
2.2: yeast gene YLR178C
1.9: yeast gene YGR201C
0.3: yeast gene YKL096W
0.9: yeast gene YBL043W | yeast gene YBL102W | yeast gene YBR212W | yeast gene YCR067C | yeast gene YDL119C | yeast gene YDL238C | yeast gene YDR115W | yeast gene YDR169C | yeast gene YDR188W | yeast gene YDR378C | yeast gene YDR481C | yeast gene YER039C | yeast gene YFL043C | yeast gene YGR023W | yeast gene YGR257C | yeast gene YHR004C | yeast gene YHR195W | yeast gene YKL039W | yeast gene YKL093W | yeast gene YKL193C | yeast gene YLR340W | yeast gene YMR053C | yeast gene YMR092C | yeast gene YMR094W | yeast gene YOR124C | yeast gene YOR261C | yeast gene YOR355W | yeast gene YPL109C | yeast gene YPL149W
2.8: yeast gene YNL015W
1.5: yeast gene YCL020W | yeast gene YKL008C | yeast gene YLR356W | yeast gene YMR219W | yeast gene YOR185C | yeast gene YOR198C | yeast gene YPL154C
1.3: yeast gene YCR088W | yeast gene YGL158W | yeast gene YGR189C | yeast gene YHR142W | yeast gene YLR136C | yeast gene YOR157C
1.0: yeast gene YAR010C | yeast gene YCL067C | yeast gene YCR096C | yeast gene YDR259C | yeast gene YDR403W | yeast gene YEL042W | yeast gene YER021W | yeast gene YER130C | yeast gene YGL011C | yeast gene YGR036C | yeast gene YHR027C | yeast gene YHR161C | yeast gene YIL034C | yeast gene YIL140W | yeast gene YJL073W | yeast gene YJL164C | yeast gene YJL210W | yeast gene YJR049C | yeast gene YKL117W | yeast gene YLR078C | yeast gene YLR093C | yeast gene YLR118C | yeast gene YLR250W | yeast gene YLR391W | yeast gene YMR004W | yeast gene YMR104C | yeast gene YMR238W | yeast gene YMR314W | yeast gene YNL333W | yeast gene YPL230W | yeast gene YPR108W
1.1: yeast gene YCR071C | yeast gene YDR104C | yeast gene YDR358W | yeast gene YFL028C | yeast gene YGL229C | yeast gene YJL116C | yeast gene YKR014C | yeast gene YLR429W | yeast gene YMR226C | yeast gene YNL093W | yeast gene YOL013C | yeast gene YOL164W | yeast gene YOR383C
1.2: yeast gene YBR214W | yeast gene YDL008W | yeast gene YGR136W | yeast gene YJL089W | yeast gene YMR276W | yeast gene YNR069C | yeast gene YOR036W | yeast gene YPR103W
10.6: yeast gene YGR213C
0.6: yeast gene YDR315C | yeast gene YFL022C
3.1: yeast gene YBL078C
1.4: yeast gene YDR055W | yeast gene YDR510W | yeast gene YLR327C | yeast gene YOR288C
